Assay [1] concerns the target T1, human glucocorticoid receptor-α [GRX] isoform (Homo sapiens, UniProt P04150).
T1 construct: host or cells: insect SF21 cells (baculovirus)
T1 sequence (P04150 1-777): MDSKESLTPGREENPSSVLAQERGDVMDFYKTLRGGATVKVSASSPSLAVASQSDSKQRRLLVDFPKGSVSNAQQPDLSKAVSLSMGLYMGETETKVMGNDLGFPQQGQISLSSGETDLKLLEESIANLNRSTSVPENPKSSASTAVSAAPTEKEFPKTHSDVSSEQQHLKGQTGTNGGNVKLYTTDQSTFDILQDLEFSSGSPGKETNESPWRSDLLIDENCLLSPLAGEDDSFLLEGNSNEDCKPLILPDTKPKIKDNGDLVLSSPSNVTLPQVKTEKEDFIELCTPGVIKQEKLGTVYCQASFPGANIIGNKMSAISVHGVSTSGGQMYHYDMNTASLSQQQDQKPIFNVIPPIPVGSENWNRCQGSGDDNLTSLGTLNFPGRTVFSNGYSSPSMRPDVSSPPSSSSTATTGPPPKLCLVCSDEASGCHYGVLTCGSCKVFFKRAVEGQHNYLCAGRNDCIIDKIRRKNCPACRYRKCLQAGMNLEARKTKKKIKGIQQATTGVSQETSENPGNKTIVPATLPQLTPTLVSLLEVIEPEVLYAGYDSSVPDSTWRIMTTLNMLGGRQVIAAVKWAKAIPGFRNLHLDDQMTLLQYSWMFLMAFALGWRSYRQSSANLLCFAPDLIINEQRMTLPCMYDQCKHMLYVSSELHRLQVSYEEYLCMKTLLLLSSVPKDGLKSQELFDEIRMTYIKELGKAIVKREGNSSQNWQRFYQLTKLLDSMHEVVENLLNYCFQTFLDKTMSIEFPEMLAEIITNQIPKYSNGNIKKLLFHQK
The assay is described as follows: Radioligand binding with human glucocorticoid receptor cytosol ([3H]-dexamethasone competition). The conditions noted are these: GRX cytosol expressed in insect SF21 cells, [3H]-Dex ~0.9 nM, 4° C. overnight; Ki by Cheng-Prusoff, KL ~[…]; read-out: Ki (nM) GR.

In assay [2] the target is T2, human progesterone receptor-A [PRA] isoform (Homo sapiens, UniProt P06401).
T2 construct: host or cells: insect SF21 cells (baculovirus)
T2 sequence (P06401 1-769 isoform P06401-2): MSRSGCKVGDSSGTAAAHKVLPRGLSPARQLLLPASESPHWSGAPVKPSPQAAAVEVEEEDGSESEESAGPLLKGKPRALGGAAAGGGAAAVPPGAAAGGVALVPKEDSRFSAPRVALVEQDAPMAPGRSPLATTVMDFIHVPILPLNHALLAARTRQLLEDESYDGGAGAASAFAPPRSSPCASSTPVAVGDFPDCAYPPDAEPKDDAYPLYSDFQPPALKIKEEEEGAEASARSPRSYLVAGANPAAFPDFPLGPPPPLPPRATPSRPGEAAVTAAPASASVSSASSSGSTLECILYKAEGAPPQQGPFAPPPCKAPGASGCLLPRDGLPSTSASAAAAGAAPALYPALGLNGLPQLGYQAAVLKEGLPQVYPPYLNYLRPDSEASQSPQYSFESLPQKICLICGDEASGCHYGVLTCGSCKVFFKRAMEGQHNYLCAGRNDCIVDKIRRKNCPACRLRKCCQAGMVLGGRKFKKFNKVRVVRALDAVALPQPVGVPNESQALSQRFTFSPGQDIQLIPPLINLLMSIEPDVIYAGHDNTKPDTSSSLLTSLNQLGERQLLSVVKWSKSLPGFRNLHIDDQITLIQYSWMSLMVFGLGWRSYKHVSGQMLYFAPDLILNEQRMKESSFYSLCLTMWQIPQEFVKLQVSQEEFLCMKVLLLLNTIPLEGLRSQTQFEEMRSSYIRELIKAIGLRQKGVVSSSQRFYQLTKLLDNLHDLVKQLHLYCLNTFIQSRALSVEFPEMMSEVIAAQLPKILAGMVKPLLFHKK
The assay is described as follows: Radioligand binding with human progesterone receptor cytosol ([3H]-progesterone competition). The settings on record: PRA cytosol expressed in insect SF21 cells, [3H]Prog ~0.8 nM, 4° C. overnight; Ki by Cheng-Prusoff, KL ~4.5 nM; read-out: Ki (nM) PR.

As usually defined, the Ki is the dissociation constant of the complex between target and ligand, obtained from inhibition or displacement. `COc1cccc2c1-c1ccc3c(c1C(/C=C/c1ccccc1)O2)C(C)=CC(C)(C)N3` (stereo not drawn) [Example 321, trans 2,5-Dihydro-10-methoxy-5-(2-phenylethenyl)-2,2,4-trimethyl-1H-[1]benzopyrano[3,4-f]quinoline]: the Ki in assay [1] worked out at 44 nM; in assay [2], 2880 nM.

Regarding `CC1=CC(C)(C)Nc2ccc3c(c21)C(c1cccs1)Oc1ccc(O)c(Cl)c1-3` (stereo not shown) [Example 383, 2,5-Dihydro-9-hydroxy-10-chloro-2,2,4-trimethyl-5-(2-thienyl)-1H-[1]benzopyrano[3,4-f]quinoline], the Ki in assay [1] was 4.8 nM; in assay [2] it was 46 nM.

In the case of `COc1cccc2c1-c1ccc3c(c1C(c1ccccc1)O2)C(C)=CC(C)(C)N3` (single isomer, unassigned) [Example 25, (±)-2,5-Dihydro-10-methoxy-2,2,4-trimethyl-5-phenyl-1H-[1]benzopyrano-[3,4-f]quinoline], the results for the Ki in assay [1] and in assay [2] were 240 nM and at least 10000 nM, respectively.

Regarding `CC1=CC(C)(C)Nc2ccc3c(c21)[C@@H]([C@@H]1C=CCC1)Oc1ccc(O)c(Cl)c1-3` [Example 224], the Ki in assay [1] stood at 57 nM; in assay [2] it was 786 nM.

`COc1ccc(Br)c2c1-c1ccc3c(c1C(C1C=CCCC1)O2)C(C)=CC(C)(C)N3` (stereo not shown) [Example 297]: the inhibitory constant (Ki) in assay [1] came to 4.7 nM; in assay [2], 4840 nM.

On to `C=C(C)CCC1Oc2cccc(OC)c2-c2ccc3c(c21)C(C)=CC(C)(C)N3` (stereo not shown) [Example 132, 2,5-Dihydro-10-methoxy-5-(3-methyl-3-butenyl)-2,2,4-trimethyl-1H-[1]benzopyrano[3,4-f]quinoline], for which the inhibition constant Ki in assay [1] is 230 nM; in assay [2] it was 9890 nM.

In the case of `CNC(=O)OCCC1Oc2cccc(OC)c2-c2ccc3c(c21)C(C)=CC(C)(C)N3` (stereo not shown) [Example 203, 2,5-Dihydro-10-methoxy-5-(2-(N-methyaminocarbonyloxyoxy)ethyl)-2,2,4-trimethyl-1H-[1]benzopyrano[3,4-f]quinoline], the Ki is 85 nM in assay [1] and at least 10000 nM in assay [2].

As to `COc1ccc(C2Oc3cccc(OC)c3-c3ccc4c(c32)C(C)=CC(C)(C)N4)cc1` (stereo not shown) [Example 22, 2,5-Dihydro-10-methoxy-5-(4-methoxyphenyl)-2,2,4-trimethyl-1H-[1]benzopyrano[3,4-f]quinoline], the Ki in assay [1] was 6.5 nM; in assay [2], at least 10000 nM.

Regarding `C=CCC1Oc2ccc(OCCCC(=O)OCC)c(OC)c2-c2ccc3c(c21)C(C)=CC(C)(C)N3` (racemic) [Example 433, (+/−)2,5-Dihydro-9-(4-ethoxy-4-oxo-butoxy)-10-methoxy-2,2,4-trimethyl-5-allyl-1H-[1]benzopyrano[3,4-f]quinoline], the Ki in assay [1] worked out at 30.2 nM; in assay [2] it was 1410 nM.

On to `C=CCC1Oc2ccc(CO)c(OC)c2-c2ccc3c(c21)C(C)=CC(C)(C)N3` (stereo not shown) [Example 386, 2,5-Dihydro-9-hydroxymethyl-10-methoxy-2,2,4-trimethyl-5-allyl-1H-[1]benzopyrano[3,4-f]quinoline], for which the Ki in assay [1] worked out at 6.5 nM; in assay [2], 105 nM.

Regarding `COc1c(O)ccc2c1-c1ccc3c(c1C(c1c(F)c(F)c(F)c(F)c1F)O2)C(C)=CC(C)(C)N3` (racemic) [Example 269, (±)2,5-Dihydro-9-hydroxy-10-methoxy-2,2,4-trimethyl-5-(2,3,4,5,6-pentafluorophenyl)-1H-[1]benzopyrano[3,4-f]quinoline], the Ki was 17.1 nM in assay [1] and 2470 nM in assay [2].

Consider `CC1=CC(C)(C)Nc2ccc3c(c21)C(c1ccc(F)c(F)c1)Oc1ccc(O)c(Cl)c1-3` (stereo not shown) [Example 226, 10-Chloro-9-hydroxy-5-(3,4-difluorophenyl)-2,2,4-trimethyl-1H-2,5-dihydro-[1]benzopyrano[3,4-f]quinoline], for which the inhibitory constant (Ki) is 2.6 nM in assay [1] and 220 nM in assay [2].

For `COC(=O)Oc1cccc2c1-c1ccc3c(c1C(c1cc(Cl)cc(Cl)c1)O2)C(C)=CC(C)(C)N3` (stereo not shown) [Example 81], the Ki is 155 nM in assay [1] and at least 10000 nM in assay [2].

For `COc1cccc2c1-c1ccc3c(c1[C@@H](C1CCCOC1=O)O2)C(C)=CC(C)(C)N3` (stereo in doubt) [Example 134, rel (5R,2′R) 2,5-Dihydro-10-methoxy-5-(2-oxo-3-tetrahydropyranyl)-2,2,4-trimethyl-1H[1]benzopyrano[3,4-f]quinoline], the Ki is 238 nM in assay [1] and at least 10000 nM in assay [2].

For `COc1cccc2c1-c1ccc3c(c1C(c1ccccn1)O2)C(C)=CC(C)(C)N3` (stereo not shown) [Example 213, 2,5-Dihydro-10-methoxy-5-(2-pyridyl)-2,2,4-trimethyl-1H-[1]benzopyrano[3,4-f]quinoline], the results for the inhibitory constant (Ki) in assay [1] and in assay [2] were 67 nM and at least 10000 nM, respectively.

Turning to `COc1cccc2c1-c1ccc3c(c1C(C1CCCCC1=O)O2)C(C)=CC(C)(C)N3` (single isomer, unassigned) [Example 142, 2,5-Dihydro-10-methoxy-5-(1-oxo-2-cyclohexyl)-2,2,4-trimethyl-1H-[1]benzopyrano[3,4-f]quinoline], the figures for the Ki in assay [1] and in assay [2] were 51 nM and at least 10000 nM, respectively.

For `COc1cccc2c1-c1ccc3c(c1C(c1cccc(OC[S+](C)[O-])c1)O2)C(C)=CC(C)(C)N3` (stereo not shown) [Example 101, 2,5-Dihydro-10-methoxy-2,2,4-trimethyl-5-[3-[(methylsulfinyl)methoxy]phenyl]-1H-[1]benzopyrano[3,4-f]quionline], the inhibitory constant (Ki) in assay [1] was 11.4 nM; in assay [2], at least 10000 nM.

For the compound `CCOC(=N)C1Oc2cccc(OC)c2-c2ccc3c(c21)C(C)=CC(C)(C)N3` (stereo not shown) [Example 61, 2,5-Dihydro-10-methoxy-2,2,4-trimethyl-1H-[1]benzopyrano[3,4-f]quinoline-5-carboximidic Acid Ethyl Ester], the Ki in assay [1] was 62 nM; in assay [2], 14400 nM.

Consider `C#CCOc1ccc2c(c1OC)-c1ccc3c(c1C(CC=C)O2)C(C)=CC(C)(C)N3` (stereo not shown) [Example 294, 10-Methoxy-9-(3-propynyloxy)-5-(3-propenyl)-2,2,4-trimethyl-1H-2,5-dihydro[1]benzopyrano[3,4-f]quinoline], for which the Ki stood at 13.8 nM in assay [1] and 1810 nM in assay [2].

On to `COc1cccc2c1-c1ccc3c(c1C(/C=C\c1ccccc1)O2)C(C)=CC(C)(C)N3` (stereo not drawn) [Example 323, cis 2,5-Dihydro-10-methoxy-5-(2-phenylethenyl)-2,2,4-trimethyl-1H-[1]benzopyrano[3,4-f]quinoline], for which the Ki is 428 nM in assay [1] and at least 10000 nM in assay [2].

Consider `C=CCC1Oc2ccc(OC(=O)CCCN(C)C)c(OC)c2-c2ccc3c(c21)C(C)=CC(C)(C)N3` (stereo not shown) [Example 426, 2,5-Dihydro-9-(4-N,N-dimethylaminobutanoyloxy)-10-methoxy-2,2,4-trimethyl-5-(2-propenyl)-1H-[1]benzopyrano[3,4-f]quinoline], for which the Ki in assay [1] came to 0.85 nM; in assay [2], 110 nM.

As to `C=Cc1cccc2c1-c1ccc3c(c1C(c1ccccc1)O2)C(C)=CC(C)(C)N3` (stereo not shown) [Example 333, 2,5-Dihydro-10-ethenyl-5-phenyl-2,2,4-trimethyl-1H-[1]benzopyrano[3,4-f]quinoline], the Ki is 5.6 nM in assay [1] and 3670 nM in assay [2].

With `COc1cccc2c1-c1ccc3c(c1C(c1cc(C(F)(F)F)cc(C(F)(F)F)c1)O2)C(C)=CC(C)(C)N3` (stereo not shown) [Example 31, 5-[3,5-bis(Trifluoromethyl)phenyl]-2,5-dihydro-10-methoxy-2,2,4-trimethyl-1H-[1]benzopyrano[3,4-f]quinoline], the Ki in assay [1] was 12.2 nM; in assay [2], at least 10000 nM.

(Values after patent US6506766B1 (Abbott Laboratories, priority 1998, dated 2003).)
